According to patent US20240150321A1, “PYRAZOLYLSULFONAMIDE COMPOUNDS AND THEIR USE IN THERAPY” (HOTSPOT THERAPEUTICS, INC., priority 2022, published 2024):

What was measured:
Avi-tagged FL MALT-1 = Avi-tagged FL MALT-1 (Homo sapiens (Human), UniProt Q9UDY8); assay: MALT-1 Fluorogenic Peptide Cleavage Assay (MALT1 inhibition assay); assay type: biochemical; conditions: Ac-LRSR-AMC peptide substrate, 30 min pre-incubation, 90 min reaction at room temperature
In short: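 Cleavage of Ac-LRSR-AMC, read as fluorescence at 342/441 nm after 90 min at room temperature, with substrate working stocks of 50 μM (Km) or 280 μM (10×Km). Enzyme, Avi-tagged full-length MALT-1 (40 nM stock), was first pre-incubated 30 min with compound in citrate/HEPES pH 6.89 buffer with TCEP, EDTA, CHAPS and 2% DMSO; IC50 fitted from normalised % inhibition.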

[1] = system: NF-kB reporter in Jurkat cells; assay: NF-kB reporter assay in Jurkat cells stimulated with aCD3/aCD28/PMA; assay type: cell-based; conditions: Homo sapiens; Jurkat cells, 1 hr compound pre-incubation, aCD3/aCD28/PMA stimulation 4 hr, One-Glo readout; read-out: NF-kB Reporter Assay IC50
In short: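 Luminescence (One-Glo) from the NF-kB reporter yielded IC50 values. Stimulation lasted 4 h at 37° C with aCD3, aCD28 and PMA (final 5, 5 and 0.03 […]), after 1 h compound pre-exposure of 25,000 Jurkat cells per well in serum-free RPMI.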

Sequence of Avi-tagged FL MALT-1 (Q9UDY8 whole entry): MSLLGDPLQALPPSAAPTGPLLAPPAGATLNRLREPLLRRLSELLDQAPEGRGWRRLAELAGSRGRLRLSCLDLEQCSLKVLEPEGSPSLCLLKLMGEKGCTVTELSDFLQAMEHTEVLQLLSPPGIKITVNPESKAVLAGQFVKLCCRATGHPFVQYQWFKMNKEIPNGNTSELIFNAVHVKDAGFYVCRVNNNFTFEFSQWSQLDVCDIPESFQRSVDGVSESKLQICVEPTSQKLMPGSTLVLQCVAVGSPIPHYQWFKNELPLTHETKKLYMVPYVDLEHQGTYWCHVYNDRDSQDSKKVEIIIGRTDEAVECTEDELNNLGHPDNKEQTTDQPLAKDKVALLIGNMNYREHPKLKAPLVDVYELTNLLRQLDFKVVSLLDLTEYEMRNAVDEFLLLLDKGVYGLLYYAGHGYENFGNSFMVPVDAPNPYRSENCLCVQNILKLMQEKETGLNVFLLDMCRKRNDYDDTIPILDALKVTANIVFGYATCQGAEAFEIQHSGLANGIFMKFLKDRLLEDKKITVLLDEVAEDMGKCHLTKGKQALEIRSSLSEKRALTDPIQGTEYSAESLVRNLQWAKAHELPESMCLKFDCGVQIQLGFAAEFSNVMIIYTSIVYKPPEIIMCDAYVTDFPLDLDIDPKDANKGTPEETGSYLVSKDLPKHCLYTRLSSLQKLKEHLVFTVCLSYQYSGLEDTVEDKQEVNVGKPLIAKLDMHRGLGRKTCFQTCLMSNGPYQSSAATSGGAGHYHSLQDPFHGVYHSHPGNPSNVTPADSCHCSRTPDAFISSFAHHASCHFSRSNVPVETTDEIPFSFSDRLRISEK

| IC50 (Avi-tagged FL MALT-1) | IC50 [1] | Compound |
| --- | --- | --- |
| > 2500 nM | < 400 nM | Cn1ncc2cccc(NS(=O)(=O)c3cnn(-c4cc(N5CC(C)(C)OC5=O)ccn4)c3)c21 [Compound I-283] |
| > 2500 nM | < 400 nM | Cn1ncc2cccc(NS(=O)(=O)c3cnn(-c4cc(N5CCCC5=O)ccn4)c3)c21 [Compound I-284] |
| > 2500 nM | 400 to 1000 nM | Cn1ncc2cccc(NS(=O)(=O)c3cnn(-c4cc(N5CC(C)(C)NC5=O)ccn4)c3)c21 [Compound I-285, 1-(4-(4,4-Dimethyl-2-Oxoimidazolidin-1-yl)Pyridin-2-yl)-N-(1-Methyl-1H-Indazol-7-yl)-1H-Pyrazole-4-Sulfonamide] |
| ≤ 400 nM | 400 to 1000 nM | COc1ncc2cnn(C)c2c1NS(=O)(=O)c1cnn(-c2cc(C(F)(F)F)n(C)n2)c1 [Compound I-286, N-(6-methoxy-1-methyl-1H-pyrazolo[4,3-c]pyridin-7-yl)-1′-methyl-5′-(trifluoromethyl)-1′H-[1,3′-bipyrazole]-4-sulfonamide] |
| > 2500 nM | > 2500 nM | CC(=O)N1CC(O)(c2ccnc(-n3cc(S(=O)(=O)Nc4cccc5cnn(C)c45)cn3)c2)C1 [Compound I-287] |
| > 2500 nM | < 400 nM | Cn1ncc2cccc(NS(=O)(=O)c3cnn(-c4cc([C@]5(O)C[C@H](C)C5)ccn4)c3)c21 [Compound I-288, 1-(4-((1r,3r)-1-hydroxy-3-methyl-cyclobutyl)pyridin-2-yl)-N-(1-methyl-1H-indazol-7-yl)-1H-pyrazole-4-sulfonamide] |
| > 2500 nM | > 2500 nM | COCC(F)(COC)c1ccnc(-n2cc(S(=O)(=O)Nc3cccc4cnn(C)c34)cn2)c1 [Compound I-289] |
| > 2500 nM | < 400 nM | CC[C@](C)(O)c1ccnc(-n2cc(S(=O)(=O)Nc3cccc4cnn(C)c34)cn2)c1 [Compound I-294] |
| > 2500 nM | < 400 nM | CC[C@@](C)(O)c1ccnc(-n2cc(S(=O)(=O)Nc3cccc4cnn(C)c34)cn2)c1 [Compound I-295] |
| > 2500 nM | < 400 nM | CCC(CC)(OC)c1ccnc(-n2cc(S(=O)(=O)Nc3cccc4cnn(C)c34)cn2)c1 [Compound I-296] |
| > 2500 nM | < 400 nM | CCC(OC)c1ccnc(-n2cc(S(=O)(=O)Nc3cccc4cnn(C)c34)cn2)c1 (stereo not shown) [Compound I-297, 1-{4-[1-methoxypropyl]pyridin-2-yl}-N-(1-methylindazol-7-yl)pyrazole-4-sulfonamide] |
| > 2500 nM | < 400 nM | CC[C@@H](OC)c1ccnc(-n2cc(S(=O)(=O)Nc3cccc4cnn(C)c34)cn2)c1 [Compound I-298] |
| ≤ 400 nM | 400 to 1000 nM | CCC(CC)(OC)c1ccnc(-n2cc(S(=O)(=O)Nc3c(OC)ccc4cnn(C)c34)cn2)c1 [Compound I-299, N-(6-Methoxy-1-Methyl-1H-Indazol-7-yl)-1-(4-(3-Methoxypentan-3-yl)Pyridin-2-yl)-1H-Pyrazole-4-Sulfonamide] |
| > 2500 nM | < 400 nM | COC[C@](C)(OC)c1ccnc(-n2cc(S(=O)(=O)Nc3cccc4cnn(C)c34)cn2)c1 [Compound I-300] |
| > 2500 nM | < 400 nM | COC[C@@](C)(OC)c1ccnc(-n2cc(S(=O)(=O)Nc3cccc4cnn(C)c34)cn2)c1 [Compound I-301] |
| > 2500 nM | < 400 nM | C[C@@H]1COC(=O)N1c1ccnc(-n2cc(S(=O)(=O)Nc3cccc4cnn(C)c34)cn2)c1 [Compound I-302] |
| > 2500 nM | < 400 nM | C[C@H]1COC(=O)N1c1ccnc(-n2cc(S(=O)(=O)Nc3cccc4cnn(C)c34)cn2)c1 [Compound I-303] |
| > 2500 nM | 400 to 1000 nM | COC[C@@H](O)c1ccnc(-n2cc(S(=O)(=O)Nc3cccc4cnn(C)c34)cn2)c1 [Compound I-304] |

| IC50 (Avi-tagged FL MALT-1) | IC50 [1] | Compound |
| --- | --- | --- |
| > 2500 nM | 400 to 1000 nM | COC[C@H](O)c1ccnc(-n2cc(S(=O)(=O)Nc3cccc4cnn(C)c34)cn2)c1 [Compound I-305] |
| > 2500 nM | < 400 nM | CO[C@]1(c2ccnc(-n3cc(S(=O)(=O)Nc4cccc5cnn(C)c45)cn3)c2)CCOC1 [Compound I-306] |
| > 2500 nM | < 400 nM | Cn1ncc2cccc(NS(=O)(=O)c3cnn(-c4cc(C(C)(C)CO)ccn4)c3)c21 [Compound I-307, 1-(4-(1-hydroxy-2-methylpropan-2-yl)pyridin-2-yl)-N-(1-methyl-1H-indazol-7-yl)-1H-pyrazole-4-sulfonamide] |
| > 2500 nM | > 2500 nM | CN1CCC[C@@H](n2cc(S(=O)(=O)Nc3cccc4cnn(C)c34)cn2)C1 [Compound I-308, N-(1-methylindazol-7-yl)-1-[(3R)-1-methylpiperidin-3-yl]pyrazole-4-sulfonamide] |
| > 2500 nM | > 2500 nM | CN1CCC[C@H](n2cc(S(=O)(=O)Nc3cccc4cnn(C)c34)cn2)C1 [Compound I-309] |
| > 2500 nM | < 400 nM | CO[C@@]1(c2ccnc(-n3cc(S(=O)(=O)Nc4cccc5cnn(C)c45)cn3)c2)CCOC1 [Compound I-311] |
| 1000 to 2500 nM | < 400 nM | CC[C@@](C)(O)c1ccnc(-n2cc(S(=O)(=O)Nc3c(OC)ccc4cnn(C)c34)cn2)c1 [Compound I-316] |
| ≤ 400 nM | < 400 nM | CC[C@H](OC)c1ccnc(-n2cc(S(=O)(=O)Nc3c(OC)ccc4cnn(C)c34)cn2)c1 [Compound I-317, (S)—N-(6-Methoxy-1-Methyl-1H-Indazol-7-yl)-1-(4-(1-Methoxypropyl)Pyridin-2-yl)-1H-Pyrazole-4-Sulfonamide] |
| ≤ 400 nM | < 400 nM | CC[C@@H](OC)c1ccnc(-n2cc(S(=O)(=O)Nc3c(OC)ccc4cnn(C)c34)cn2)c1 [Compound I-318, N-(6-methoxy-1-methylindazol-7-yl)-1-{4-[(1R)-1-methoxypropyl]pyridin-2-yl}pyrazole-4-sulfonamide] |
| > 2500 nM | < 400 nM | C[C@H]1CN(c2ccnc(-n3cc(S(=O)(=O)Nc4cccc5cnn(C)c45)cn3)c2)C(=O)O1 [Compound I-319] |
| > 2500 nM | < 400 nM | C[C@@H]1CN(c2ccnc(-n3cc(S(=O)(=O)Nc4cccc5cnn(C)c45)cn3)c2)C(=O)O1 [Compound I-320] |
| > 2500 nM | < 400 nM | Cn1ncc2cccc(NS(=O)(=O)c3cnn(-c4cc(N5C(=O)OCC5(C)C)ccn4)c3)c21 [Compound I-321] |
| > 2500 nM | < 400 nM | CN1CCN(c2ccnc(-n3cc(S(=O)(=O)Nc4cccc5cnn(C)c45)cn3)c2)C1=O [Compound I-322] |
| 400 to 1000 nM | < 400 nM | COc1ccc2cnn(C)c2c1NS(=O)(=O)c1cnn(-c2cc(CO)ccn2)c1 [Compound I-323, 1-[4-(hydroxymethyl)pyridin-2-yl]-N-(6-methoxy-1-methylindazol-7-yl)pyrazole-4-sulfonamide] |
| > 2500 nM | < 400 nM | Cn1ncc2cccc(NS(=O)(=O)c3cnn(-c4cc(NC(C)(C)CO)ccn4)c3)c21 [Compound I-324, 1-(4-((1-Hydroxy-2-Methylpropan-2-yl)Amino)Pyridin-2-yl)-N-(1-Methyl-1H-Indazol-7-yl)-1H-Pyrazole-4-Sulfonamide] |
| > 2500 nM | > 2500 nM | CN1CC(c2ccnc(-n3cc(S(=O)(=O)Nc4cccc5cnn(C)c45)cn3)c2)C1 [Compound I-325] |
| > 2500 nM | > 2500 nM | CC(=O)N1CC(c2ccnc(-n3cc(S(=O)(=O)Nc4cccc5cnn(C)c45)cn3)c2)C1 [Compound I-326] |
